Results taken from paper PMC6364417, “Kinase inhibitor library screening identifies synergistic drug combinations effective in sensitive and resistant melanoma cells” (Journal of Experimental & Clinical Cancer Research : CR, 2019).

Tests used:
Experiment in all cases: Kinase inhibitor library screening, PrestoBlue cell viability, 1 or 10 μM, 72 h
[1] = tested on: 501Mel cells (parental); settings: 501Mel Parental, 72 h, in %
Protocol: (§1) After 72 h of treatment, cell viability was assessed using the PrestoBlue Cell Viability Reagent (ThermoFisher Scientific). Measurements were performed with the CLARIOstar Monochromator microplate reader (BMG Labtech).
(§2) Kinase inhibitor library screening. […] Each cell line was treated in its sensitive form (parental), and also as 2 resistant derivatives, which were made resistant to either Vemurafenib (XP) or Dabrafenib (GP). Drugs were added at 2 different concentrations, 1 and 10 μM, for 72 h and cell viability was assessed using the PrestoBlue Cell Viability assay. Results are depicted as % viability compared to untreated cells. Each cell line was analyzed at least in duplicate. […] (XLSX 95 kb)

[2] = tested on: 501Mel-GP cells (Dabrafenib-resistant); settings: for Cell viability in kinase inhibitor library screening, 501Mel GP, 1μΜ / Cell viability in kinase inhibitor library screening, 501Mel GP, 10μΜ / cell viability (kinase inhibitor library screening): 72 h, 501Mel GP; for Cell viability in kinase inhibitor library screening, 501Mel GP, 1μΜ / Cell viability in kinase inhibitor library screening, 501Mel GP, 10μΜ: in %
Protocol: as §1, §2

[3] = tested on: 501Mel-XP cells (Vemurafenib-resistant); settings: for Cell viability in kinase inhibitor library screening, 501Mel XP, 1μΜ / Cell viability in kinase inhibitor library screening, 501Mel XP, 10μΜ: in %
Protocol: as §1, §2

[4] = tested on: A375 cells (parental); settings: for Cell viability in kinase inhibitor library screening, A375 Parental, 10μΜ / Cell viability in kinase inhibitor library screening, A375 Parental, 1μΜ / cell viability (kinase inhibitor library screening): 72 h, A375 Parental
Protocol: as §1, §2

[5] = tested on: A375-GP cells (Dabrafenib-resistant); settings: for Cell viability in kinase inhibitor library screening, A375 GP, 1μΜ / Cell viability in kinase inhibitor library screening, A375 GP, 10μΜ / cell viability (kinase inhibitor library screening): 72 h, A375 GP
Protocol: as §1, §2

[6] = tested on: A375-XP cells (Vemurafenib-resistant); settings: for Cell viability in kinase inhibitor library screening, A375 XP, 1μΜ / Cell viability in kinase inhibitor library screening, A375 XP, 10μΜ / cell viability (kinase inhibitor library screening): 72 h, A375 XP
Protocol: as §1, §2

[7] = tested on: IGR37-GP cells (Dabrafenib-resistant)
Protocol: as §1, §2

[8] = tested on: IGR37-XP cells (Vemurafenib-resistant); settings: for Cell viability in kinase inhibitor library screening, IGR37 XP, 10μΜ / Cell viability in kinase inhibitor library screening, IGR37 XP, 1μΜ / cell viability (kinase inhibitor library screening): 72 h, IGR37 XP; for Cell viability in kinase inhibitor library screening, IGR37 XP, 1μΜ: in %
Protocol: as §1, §2

[9] = tested on: IGR37 cells (parental); settings: for Cell viability in kinase inhibitor library screening, IGR37 Parental, 1μΜ / Cell viability in kinase inhibitor library screening, IGR37 Parental, 10μΜ: in %
Protocol: as §1, §2

Compound	Cell viability in kinase inhibitor library screening, 501Mel Parental, 10μΜ [1]	Cell viability in kinase inhibitor library screening, 501Mel GP, 1μΜ ([2]; 1μΜ)	Cell viability in kinase inhibitor library screening, 501Mel GP, 10μΜ ([2]; 10μΜ)	Cell viability in kinase inhibitor library screening, 501Mel XP, 1μΜ ([3]; 501Mel XP, 72 h)	Cell viability in kinase inhibitor library screening, 501Mel XP, 10μΜ ([3]; 501Mel XP, 10μΜ, 72 h)	Cell viability in kinase inhibitor library screening, A375 Parental, 10μΜ ([4]; 10μΜ)	Cell viability in kinase inhibitor library screening, A375 Parental, 1μΜ ([4]; 1μΜ)	Cell viability in kinase inhibitor library screening, A375 GP, 1μΜ ([5]; 1μΜ)	Cell viability in kinase inhibitor library screening, A375 GP, 10μΜ ([5]; 10μΜ)	Cell viability in kinase inhibitor library screening, A375 XP, 1μΜ ([6]; 1μΜ)	Cell viability in kinase inhibitor library screening, A375 XP, 10μΜ ([6]; 10μΜ)	Cell viability in kinase inhibitor library screening, IGR37 GP, 10μΜ ([7]; IGR37 GP, 10μΜ, 72 h) [%]	Cell viability in kinase inhibitor library screening, IGR37 XP, 10μΜ ([8]; 10μΜ) [%]	Cell viability in kinase inhibitor library screening, IGR37 XP, 1μΜ ([8]; 1μΜ)	Cell viability in kinase inhibitor library screening, IGR37 Parental, 1μΜ ([9]; IGR37 Parental, 1μΜ, 72 h)	Cell viability in kinase inhibitor library screening, IGR37 Parental, 10μΜ ([9]; IGR37 Parental, 72 h)	further results
Cc1nc(NC(=O)N2CCC[C@H]2C(N)=O)sc1-c1csc(C(C)(C)C)n1 [A66]	85.2	92.2	75.2	102.8	65.7	72.4	98.3	93.1	64.2	92.2	75.9	75	41.5	91.5			Cell viability in kinase inhibitor library screening, 501Mel Parental, 1μΜ ([1]; 1μΜ): 94.4; Cell viability in kinase inhibitor library screening, IGR37 GP, 1μΜ ([7]; IGR37 GP, 1μΜ, 72 h, in %): 91.2
COc1ccc2c(Oc3ccc(NC(=O)c4c(C)n(CC(C)(C)O)n(-c5ccccc5)c4=O)nc3)ccnc2c1 [AMG458]																	cell viability (kinase inhibitor library screening) ([2]; 1μΜ): 92.9%; cell viability (kinase inhibitor library screening) ([2]; 10μΜ): 70.8%; cell viability (kinase inhibitor library screening) ([3]; 501Mel XP, 10μΜ, 72 h): 51.7%; cell viability (kinase inhibitor library screening) ([4]; 10μΜ): 96.0%; cell viability (kinase inhibitor library screening) ([4]; 1μΜ): 106.7%; cell viability (kinase inhibitor library screening) ([5]; 1μΜ): 107.8%; cell viability (kinase inhibitor library screening) ([5]; 10μΜ): 90.9%; cell viability (kinase inhibitor library screening) ([6]; 1μΜ): 106.6%; cell viability (kinase inhibitor library screening) ([6]; 10μΜ): 96.2%; cell viability (kinase inhibitor library screening) ([9]; IGR37 Parental, 1μΜ, 72 h): 107.7%; cell viability (kinase inhibitor library screening) ([7]; IGR37 GP, 1μΜ, 72 h): 97.0%; cell viability (kinase inhibitor library screening) ([7]; IGR37 GP, 10μΜ, 72 h): 88.1%; cell viability (kinase inhibitor library screening) ([8]; 1μΜ): 94.8%; cell viability (kinase inhibitor library screening) ([8]; 10μΜ): 55.7%
Cc1ccccc1-n1c(Cn2cnc3c(N)ncnc32)nc2cccc(C)c2c1=O [IC-87114]		100.1	87.1	98.1	83.6	90.3	98.8	93.5	88.8	103.8	102.9	91.5	77.2	93.3	97.2	99.7	
FC(F)(F)c1ccc(/C=C/c2nc(COc3ccc(CCCCn4ccnn4)cc3)co2)cc1 [Mubritinib (TAK 165)]																	cell viability, 501Mel GP, 10μΜ [2]: 95.8; cell viability, 501Mel XP, 1μΜ [3]: 92.8; cell viability, 501Mel XP, 10μΜ [3]: 81.6; cell viability, A375 Parental, 1μΜ [4]: 94.8; cell viability, A375 Parental, 10μΜ [4]: 91.7; cell viability, A375 GP, 1μΜ [5]: 93.7; cell viability, A375 GP, 10μΜ [5]: 94.7; cell viability, A375 XP, 1μΜ [6]: 94.9; cell viability, A375 XP, 10μΜ [6]: 98.4; cell viability, IGR37 Parental, 1μΜ [9]: 98.7; cell viability, IGR37 Parental, 10μΜ [9]: 100.1; cell viability, IGR37 GP, 1μΜ [7]: 99.8; cell viability, IGR37 GP, 10μΜ [7]: 95.3; cell viability, IGR37 XP, 1μΜ [8]: 98.3; cell viability, IGR37 XP, 10μΜ [8]: 81.5
Cc1ccccc1-n1c(Cn2ncc3c(N)ncnc32)nc2cccc(C)c2c1=O [PIK-293]	99.9		90.9	112.1	91.5			97.7	99.7	106.1	104.4		77.6	103.2	105.2	107.6	
